From patent publication US8338422B2, “Indolin-2-ones and aza-indolin-2-ones” (Janssen Pharmaceutica NV, priority 2007, dated 2012)

Assays:
[1] = tested on: A2780; experiment: Cellular proliferation assay (Alamar blue), A2780; format: cell-based; settings: A2780 cells, 72 hours with compound, 10% FCS; for IC50: Homo sapiens, A2780, 72 h, read-out: pIC50 A2780 (converted)
Protocol: (§1) […] functional properties of these compounds was tested in cellular proliferation assays on a panel of different cell lines in the presence of 10% FCS serum (37° C. and 5% (v/v) CO2). In a first step these cells were seeded and incubated for 24 hours in the absence of compound. In the second step the cells were incubated for 72 hours with the compounds to be tested for 72 hours. The viable cell number was finally assessed in a standard Alamar blue cell viability assay.
(§2) The viable cell number was assessed by incubation for either 4 h (HCT-116, H1299, H460) 6 h (SKOV3, HT29, U87-MG, Colo205) or 24 h (A2780, PC3, MDA-MB-231, A549, MCF-7) with Alamar blue (Resazurin 9 μg/ml, K-Ferrocyanide 90 μM K-Ferricyanide 90 μM) and the converted fluorescent product was quantified on a fluorescent plate readed (544 nm/590 nm). Effect of the compounds is calculated as of on control cells.

[2] = tested on: PC-3; experiment: Cellular proliferation assay (Alamar blue), PC-3; format: cell-based; settings: PC-3 cells, 72 hours with compound, 10% FCS; for IC50: Homo sapiens, PC-3, 72 h, read-out: pIC50 PC-3 (converted)
Protocol: as §1, §2

[3] = tested on: U87MG; experiment: Cellular proliferation assay (Alamar blue), U87MG; format: cell-based; settings: U87MG cells, 72 hours with compound, 10% FCS; for IC50: Homo sapiens, U-87 MG, 72 h, read-out: pIC50 U87MG (converted)
Protocol: as §1, §2

[4] = biological target: CDK1/CyclinB (h) (Homo sapiens, UniProt P06493); experiment: CDK1/CyclinB human kinase assay (FRET); format: biochemical; settings: for IC50: read-out: CDK1 pIC50 (converted)
How it was run: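 Kinase activity was read as the 460/538 nm emission ratio after protease cleavage of unphosphorylated peptide (60 min development). The reaction ran 60 min at room temperature with 10 μM ATP, 2 μM Ser/Thr peptide 12 and 0.2 μg/ml enzyme in Hepes pH 7.5 buffer with MgCl2, EGTA, Brij-35.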

[5] = biological target: AuroraB (h) (Homo sapiens, UniProt Q96GD4); experiment: Aurora-B human kinase assay (SPA); format: biochemical; settings: for IC50: read-out: AuroraB pIC50 (converted)
How it was run: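 33P-phosphorylated biotin-substrate captured on streptavidin PVT SPA beads after EDTA-containing stop and imaged on Leadseeker. Reaction: 60 min at room temperature, Hepes pH 7.5 with Mg2+/Mn2+. Conditions: 0.5 μM ATP plus 2.2 nM [γ-33P]ATP, 3 μM substrate, 0.5 μg/ml human AuroraB.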

[6] = biological target: GSK3β (h) (Homo sapiens, UniProt P49841); experiment: GSK-3β human kinase assay (SPA); format: biochemical; settings: for IC50: read-out: GSK3B pIC50 (converted)
How it was run: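 Radiometric SPA read-out: after EDTA stop, biotinylated 33P-labelled peptide bound streptavidin PVT beads and was imaged on Leadseeker. Reaction: 60 min, room temperature, GSK3β (h) at 1 μg/ml, 1 μM substrate peptide, 1 μM ATP with 2 nM [γ-33P]ATP, Tris pH 7.4/MgCl2/DTT buffer.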

[7] = biological target: PLK4 (h) (Homo sapiens, UniProt O00444); experiment: PLK-4 human kinase assay (SPA); format: biochemical; settings: for IC50: read-out: PLK4 pIC50 (converted)
How it was run: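 Radiometric readout: 33P-labelled peptide captured on streptavidin SPA beads after EDTA stop, imaged by Leadseeker. Reaction ran 60 min at room temperature in Hepes pH 8.0 buffer. It contained 1 μM ATP with 2 nM [γ-33P]ATP, 10 μM biotinylated peptide and PLK4 (h) at 19 μg/ml.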

[8] = tested on: HCT-116; experiment: Cellular proliferation assay (Alamar blue), HCT-116; format: cell-based; settings: HCT-116 cells, 72 hours with compound, 10% FCS; for IC50: Homo sapiens, HCT-116, 72 h, read-out: pIC50 HCT-116 (converted)
Protocol: as §1, §2

[9] = tested on: H1299; experiment: Cellular proliferation assay (Alamar blue), H1299; format: cell-based; settings: H1299 cells, 72 hours with compound, 10% FCS; for IC50: Homo sapiens, NCI-H1299, 72 h, read-out: pIC50 H1299 (converted)
Protocol: as §1, §2

[10] = tested on: MDA/MB231; experiment: Cellular proliferation assay (Alamar blue), MDA/MB231; format: cell-based; settings: MDA/MB231 cells, 72 hours with compound, 10% FCS; for IC50: Homo sapiens, MDA-MB-231, 72 h, read-out: pIC50 MDA/MB231 (converted)
Protocol: as §1, §2

PLK4 (h), sequence (O00444 whole entry): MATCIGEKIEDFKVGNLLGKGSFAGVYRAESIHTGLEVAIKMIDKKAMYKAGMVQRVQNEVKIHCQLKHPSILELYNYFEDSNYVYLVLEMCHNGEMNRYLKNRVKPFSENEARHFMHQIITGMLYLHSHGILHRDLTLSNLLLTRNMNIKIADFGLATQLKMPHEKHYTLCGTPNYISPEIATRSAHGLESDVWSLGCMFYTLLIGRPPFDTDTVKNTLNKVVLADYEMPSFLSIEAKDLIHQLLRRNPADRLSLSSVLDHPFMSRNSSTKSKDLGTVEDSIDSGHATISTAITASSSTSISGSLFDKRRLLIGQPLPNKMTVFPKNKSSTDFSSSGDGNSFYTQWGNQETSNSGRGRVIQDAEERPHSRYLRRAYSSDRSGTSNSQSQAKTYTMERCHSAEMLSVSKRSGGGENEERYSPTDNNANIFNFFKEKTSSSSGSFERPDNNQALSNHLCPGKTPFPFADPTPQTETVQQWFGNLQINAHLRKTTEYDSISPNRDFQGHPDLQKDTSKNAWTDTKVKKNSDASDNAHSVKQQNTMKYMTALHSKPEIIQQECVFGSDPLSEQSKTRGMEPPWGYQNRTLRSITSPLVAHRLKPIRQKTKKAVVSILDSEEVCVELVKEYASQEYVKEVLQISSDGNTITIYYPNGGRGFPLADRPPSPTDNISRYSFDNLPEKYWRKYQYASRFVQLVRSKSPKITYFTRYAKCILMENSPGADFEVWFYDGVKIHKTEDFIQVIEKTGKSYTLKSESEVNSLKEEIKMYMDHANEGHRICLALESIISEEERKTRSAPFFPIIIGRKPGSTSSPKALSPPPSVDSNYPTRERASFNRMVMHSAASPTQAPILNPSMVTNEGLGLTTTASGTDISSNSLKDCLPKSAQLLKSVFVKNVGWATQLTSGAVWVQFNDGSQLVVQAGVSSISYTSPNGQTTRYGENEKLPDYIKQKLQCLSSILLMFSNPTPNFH
AuroraB (h), sequence (Q96GD4 whole entry): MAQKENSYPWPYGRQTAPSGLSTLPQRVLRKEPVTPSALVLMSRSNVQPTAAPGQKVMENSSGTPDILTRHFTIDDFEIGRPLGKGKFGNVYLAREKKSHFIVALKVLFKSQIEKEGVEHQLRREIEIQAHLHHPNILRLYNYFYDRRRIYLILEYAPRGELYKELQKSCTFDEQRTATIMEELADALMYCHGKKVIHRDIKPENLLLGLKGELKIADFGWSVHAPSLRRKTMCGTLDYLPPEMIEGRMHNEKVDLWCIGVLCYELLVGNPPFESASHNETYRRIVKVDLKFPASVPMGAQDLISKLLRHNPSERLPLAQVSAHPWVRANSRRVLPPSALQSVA
CDK1/CyclinB (h), sequence (P06493 whole entry): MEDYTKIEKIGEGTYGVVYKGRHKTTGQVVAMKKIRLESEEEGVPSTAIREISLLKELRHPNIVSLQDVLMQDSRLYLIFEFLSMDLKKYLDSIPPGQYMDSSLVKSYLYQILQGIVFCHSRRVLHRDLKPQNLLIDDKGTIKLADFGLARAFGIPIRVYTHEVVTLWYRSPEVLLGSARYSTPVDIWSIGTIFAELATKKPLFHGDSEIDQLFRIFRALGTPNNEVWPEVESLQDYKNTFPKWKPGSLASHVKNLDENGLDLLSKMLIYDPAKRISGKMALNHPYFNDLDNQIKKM
CDK1/CyclinB (h), sequence (P14635 whole entry partner): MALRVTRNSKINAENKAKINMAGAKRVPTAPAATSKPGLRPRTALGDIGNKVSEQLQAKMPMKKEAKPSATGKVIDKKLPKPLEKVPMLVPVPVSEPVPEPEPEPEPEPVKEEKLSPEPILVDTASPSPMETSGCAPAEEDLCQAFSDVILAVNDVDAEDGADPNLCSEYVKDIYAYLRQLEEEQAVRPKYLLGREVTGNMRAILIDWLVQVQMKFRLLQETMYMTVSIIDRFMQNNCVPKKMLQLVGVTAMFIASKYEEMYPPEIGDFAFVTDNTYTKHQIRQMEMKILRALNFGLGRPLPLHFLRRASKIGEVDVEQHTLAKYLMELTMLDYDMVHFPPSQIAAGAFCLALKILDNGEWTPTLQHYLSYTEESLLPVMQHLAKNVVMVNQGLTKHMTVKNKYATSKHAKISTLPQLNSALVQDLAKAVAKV
GSK3β (h), sequence (P49841 whole entry): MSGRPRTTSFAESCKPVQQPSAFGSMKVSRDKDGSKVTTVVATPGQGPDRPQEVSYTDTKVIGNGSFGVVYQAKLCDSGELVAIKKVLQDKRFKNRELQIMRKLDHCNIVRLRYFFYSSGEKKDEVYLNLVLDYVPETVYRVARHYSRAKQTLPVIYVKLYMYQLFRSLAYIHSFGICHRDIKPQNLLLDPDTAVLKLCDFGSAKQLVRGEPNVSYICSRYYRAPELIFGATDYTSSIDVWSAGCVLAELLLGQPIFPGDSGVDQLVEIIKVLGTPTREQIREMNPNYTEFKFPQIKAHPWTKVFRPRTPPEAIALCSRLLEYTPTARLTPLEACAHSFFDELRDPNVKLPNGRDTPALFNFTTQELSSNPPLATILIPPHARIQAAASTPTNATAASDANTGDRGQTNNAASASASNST

SMILES | IC50 [1] | IC50 [2] | IC50 [3] | IC50 [4] | IC50 [5] | IC50 [6] | IC50 [7] | IC50 [8] | IC50 [9] | IC50 [10] | pIC50 A2780 [1] | pIC50 PC-3 [2] | pIC50 U87MG [3] | CDK1 pIC50 [4] | AuroraB pIC50 [5] | GSK3B pIC50 [6] | PLK4 pIC50 [7] | pIC50 HCT-116 [8] | pIC50 H1299 [9] | pIC50 MDA/MB231 [10]
CN1CCNC(=O)CCCCCOc2cc(ccc2Cl)N/C=C2\C(=O)Nc3ncnc1c32 [Compound 52] | > 10 µM | > 10 µM | 7.24 µM | > 10 µM | 6.61 µM | 4.47 µM | 9.55 µM | 1.95 µM | > 10 µM | > 10 µM | – | – | – | – | – | – | – | – | – | –
COc1ccc2cc1OCCCCC(=O)NCCN(C)c1ncnc3c1C(=CN2)C(=O)N3 (mixture of isomers) [Compound 44] | – | – | – | – | – | – | – | – | – | – | <5 | <5 | <5 | <5 | <5 | 5.31 | 5.22 | <5 | <5 | <5
COc1ccc2cc1CN(C)CCCCCC(=O)NCCN(C)c1ncnc3c1/C(=C/N2)C(=O)N3 [Compound 48] | > 10 µM | > 10 µM | > 10 µM | > 10 µM | > 10 µM | > 10 µM | > 10 µM | > 10 µM | > 10 µM | > 10 µM | – | – | – | – | – | – | – | – | – | –
CN1CCCNc2ncnc3c2C(=CNc2cccc(c2)OCCCC1=O)C(=O)N3 (mixture of isomers) [Compound 35] | – | – | – | – | – | – | – | – | – | – | 5.17 | 5.31 | 5.50 | 6.56 | 6.88 | 7.4 | 7.01 | 5.85 | 5.62 | <5
CN1CCNc2ncnc3c2/C(=C/Nc2cccc(c2)OCC(=O)N(C)CC1)C(=O)N3 [Compound 148] | > 10 µM | > 10 µM | > 10 µM | > 10 µM | 4.47 µM | 1 µM | 1.82 µM | > 10 µM | > 10 µM | > 10 µM | – | – | – | – | – | – | – | – | – | –
CN1CCCCNc2ncnc3c2/C(=C/Nc2cccc(c2)OCC1=O)C(=O)N3 [Compound 143] | > 10 µM | > 10 µM | > 10 µM | > 10 µM | 2.34 µM | 0.363 µM | 3.16 µM | > 10 µM | > 10 µM | > 10 µM | – | – | – | – | – | – | – | – | – | –
COc1ccc2cc1OCCCCCC(=O)N(C)CCNc1ncnc3c1/C(=C/N2)C(=O)N3 [Compound 37] | 7.59 µM | 9.55 µM | 1.82 µM | 2.14 µM | 0.214 µM | 0.0851 µM | 0.55 µM | 6.03 µM | 3.16 µM | > 10 µM | – | – | – | – | – | – | – | – | – | –
CN1CCNC(=O)CCCCCCOc2cc(ccc2Cl)N/C=C2\C(=O)Nc3ncnc1c32 [Compound 49] | > 10 µM | > 10 µM | > 10 µM | > 10 µM | > 10 µM | > 10 µM | 7.41 µM | > 10 µM | > 10 µM | > 10 µM | – | – | – | – | – | – | – | – | – | –
COc1ccc2cc1OCCCCC(=O)N(C)CCNc1ncnc3c1/C(=C/N2)C(=O)N3 [Compound 45] | > 10 µM | 9.12 µM | 1.66 µM | 2.19 µM | 0.24 µM | 0.12 µM | 0.537 µM | 1.91 µM | 2.82 µM | > 10 µM | – | – | – | – | – | – | – | – | – | –
COc1cc2cc(c1OC)OCCCCC(=O)N(C)CCNc1ncnc3c1C(=CN2)C(=O)N3 (mixture of isomers) [Compound 129] | – | – | – | – | – | – | – | – | – | – | <5 | <5 | 5.42 | <5 | 5.26 | <5 | 5.71 | <5 | 5.65 | <5
CN1CCCCCC(=O)N(C)CCCNc2ncnc3c2C(=CNc2ccc(N4CCOCC4)c(c2)C1)C(=O)N3 (mixture of isomers) [Compound 139] | – | – | – | – | – | – | – | – | – | – | 5.08 | <5 | 5.35 | <5 | <5 | 5.87 | 6.64 | 5.51 | <5 | <5
CN1CCN(c2ccc3cc2OCCCCC(=O)N(C)CCCNc2ncnc4c2C(=CN3)C(=O)N4)CC1 (mixture of isomers) [Compound 136] | – | – | – | – | – | – | – | – | – | – | 5.89 | 5.39 | 6.54 | 5.88 | 5.55 | 7.23 | 7.19 | 6.44 | 5.67 | 5.55
CN1CC(=O)N(C)CCCCNc2ncnc3c2/C(=C/Nc2cccc(c2)C1)C(=O)N3 [Compound 154] | > 10 µM | > 10 µM | > 10 µM | > 10 µM | > 10 µM | 0.661 µM | 2.82 µM | > 10 µM | > 10 µM | > 10 µM | – | – | – | – | – | – | – | – | – | –
CN1CCNC(=O)CCCCCOc2cccc(c2)N/C=C2\C(=O)Nc3ncnc1c32 [Compound 41] | > 10 µM | > 10 µM | > 10 µM | 5.01 µM | > 10 µM | 2.45 µM | 1.78 µM | > 10 µM | > 10 µM | > 10 µM | – | – | – | – | – | – | – | – | – | –
CN1CCCNc2ncnc3c2/C(=C/Nc2cc(cc(C(F)(F)F)c2)OCCCCC1=O)C(=O)N3 [Compound 130] | > 10 µM | 8.13 µM | 6.31 µM | > 10 µM | 0.309 µM | > 10 µM | 4.9 µM | 4.9 µM | 8.91 µM | > 10 µM | – | – | – | – | – | – | – | – | – | –
CN1CCN(c2ccc3cc2OCCCC(=O)N(C)CCNc2ncnc4c2C(=CN3)C(=O)N4)CC1 (mixture of isomers) [Compound 137] | – | – | – | – | – | – | – | – | – | – | 5.61 | <5 | 5.94 | 5.83 | ~5 | 6.405 | 7.3 | 6.04 | 5.73 | 5.31
COc1ccc2cc1OCCCC(=O)N(C1CCCCC1)CCCNc1ncnc3c1C(=CN2)C(=O)N3 (mixture of isomers) [Compound 145] | – | – | – | – | – | – | – | – | – | – | 5.53 | 6.04 | 5.45 | <5 | 6.41 | 6.4 | 6.61 | 6.04 | 6.08 | 5.73
CN1CCNc2ncnc3c2/C(=C/Nc2cccc(c2)OCCCCC1=O)C(=O)N3 [Compound 42] | > 10 µM | > 10 µM | > 10 µM | 5.89 µM | 1.38 µM | 0.295 µM | 1.7 µM | 2.19 µM | > 10 µM | > 10 µM | – | – | – | – | – | – | – | – | – | –
